# From patent US20120315654A1, “COMPOSITIONS AND METHODS FOR DETECTING CARDIOTOXICITY” (DUKE UNIVERSITY, priority 2011, published 2012)
# What was measured:
# [1] = test system: cell-surface CrT protein; experiment: Cell-surface CrT protein by biotin labeling, avidin isolation and Western blot (4B9); assay type: cell-based, human; conditions: HL-1 cultures, 100 nmol/L DOX
# Protocol: HL-1 cells expressing CrT protein were lysed in an ice-cold solution of 150 mmol/L NaCl; 1% Triton X-100; and 50 mmol/L Tris-HCl, pH 7.4, supplemented with protease (COMPLETE MINI protease inhibitors, ROCHE, Indianapolis, Ind.) and phosphatase inhibitors (5 mmol/L NaF; 1 mmol/L phenylmethylsulphonylfluoride; 2.5 mmol/L Na2P2O7; 50 mmol/L β-glycerol; and 1 mmol/L […], Sigma). Insoluble material was separated by centrifugation at 100,000×g for 30 min at 4° C. Solubilized protein (25 μg per lane) was mixed with Laemmli buffer containing 10% β-mercaptoethanol, separated by SDS-PAGE on a 7% gel for studies of the CrT, and then transferred to nitrocellulose membranes. […] The TATA box-binding protein band was used as a loading control and was detected using a mouse monoclonal antibody (ABCAM, Cambridge, Mass.). […] Protein abundance was quantitated by densitometry using the IMAGEJ application from NIH, and normalized to the signal obtained from CrT protein isolated from cells grown in normal culture media.
# HL-1 cultures were grown in 75 cm^2 plates and transiently transfected as described for human CrT cDNA. […] Cell surface CrT protein fraction (biotinylated CrT) was then analyzed by Western blotting using an anti-CrT antibody as described above.
# [2] = test system: RNCM; experiment: LDH release cytotoxicity assay in RNCM; assay type: cell-based, rat
# Protocol: Toxicity was assessed by quantifying the amount of lactate dehydrogenase (LDH) present in the culture media using PROMEGA's CYTOTOX96 NON-RADIOACTIVE ASSAY (PROMEGA, Madison, Wis.). Maximum cytotoxicity was determined by measuring the amount of LDH released in cells incubated with the kit's lysis buffer. The percentage of LDH released after DOX treatment was compared with that of controls.
# [3] = test system: RNCM; experiment: Caspase 3/7 apoptosis assay in RNCM; assay type: cell-based, rat; conditions: 100 nmol/L DOX, up to 48 hrs
# Protocol: Apoptosis was measured using PROMEGA's CASPASE-GLO 3/7 ASSAY SYSTEM (PROMEGA). Briefly, attached cells in a single 24-well plate were washed 3 times with ice-cold PBS and resuspended in 500 μl of 1% TRITON-X100; 10% glycerol; 2 mmol/L EDTA; 137 mmol/L NaCl; and 20 mmol/L Tris, pH 8.0. A mixture of 25 μL of lysate and 25 μL of caspase 3/7-assay reagent was prepared, and sequential luminescent readings were taken every 15 min for 4 hrs. Peak signal readings were normalized to protein content and plotted.
compound,measurement,setting,value
"COc1cccc2c1C(=O)c1c(O)c3c(c(O)c1C2=O)C[C@@](O)(C(=O)CO)C[C@@H]3O[C@H]1C[C@H](N)[C@H](O)[C@H](C)O1 [DOX, Doxorubicin]",Amount of CrT at the cell surface,[1],decreased
same,LDH release,"[2]; 50 nmol/L DOX, through 48 hrs",not significantly elevated
same,Increase in LDH release compared with control,"[2]; 100 nmol/L DOX, 36 hrs",7%
same,Apoptosis (caspase 3/7 activation),[3],No increase
